Reference: patent publication EP0097567B1, “Use of polyethoxylated alkyl phenols as antiseborrheic agents” (SANOFI S.A., priority 1982, dated 1984)

Key:
lipogénèse sébacée = assay: Activity on sebaceous lipogenesis in vitro (incorporation of 14C-glucose into lipids of rat ear skin slices); assay type: cell-based, rats mâles Sprague Dawley; conditions: 4 h, pure products, read-out: Synthèse des lipides à partir de glucose (U-1^14C)Δ % témoin; for inhibition at 0.0005 %: concentration 0,0005 %; for inhibition at 0.001 %: concentration 0,001 %; for inhibition at 0.005 %: concentration 0,005 %; for inhibition at 0.01 %: concentration 0,01 %; for inhibition at 0.0025 %: concentration 0,0025 %
From the text: Après sacrifice au chloroforme de rats mâles Sprague Dawley, d'un poids moyen de 210 g, les oreilles sont découpées aux ciseaux suivant des repères anatomiques fixes, puis leur côté ventral est soigneusement rasé. Après fixation à l'aide de rubans adhésifs sur une plaque de verre, le côté ventral de l'oreille est prélivé à l'aide d'un kératotome de Castroviejo dont l'épaisseur de coupe est réglée sur 3 mm. Ce prélèvement est ensuite coupé en petits carrés de 1 mm^2 avec une lame de rasoir et pesé avant introduction dans le tube servant à l'incubation.
L'incubation se fait dans 1,5 ml de Krebs-Ringer tamponné à pH 7,4 (tampon phosphate Sôrensen 1/15 M) et contenant 100 U/ml de pénicilline, 1 mg/ml de Streptomycine et 2 mmol de glucose non radioactif. Le produit, à la concentration à étudier, est préalablement dissous dans du propylèneglycol (concentration finale égale à 0,5%), puis introduit dans le milieu d'incubation. Les tubes servant à l'incubation sont maintenus dans un bain de glace, jusqu'à ce que tous les prélèvements soient effectués, puis 7,4kBq de glucose U_^14C (74-148 MBq/mmol) sont ajoutés dans chaque tube.
Pour chaque rat utilisé, une des oreilles sert à tester le produit antiséborrhéique potentiel, alors que l'autre sert de témoin.
Après 4 heures d'incubation à 37°C, le milieu d'incubation est éliminé, puis l'incubat subit 4 lavages de 3 mins avec agitation à l'aide de glucose non radioactif (2 g/I). Une fois la dernière eau de lavage éliminée, 3 ml de potasse alcoolique N sont rajoutés dans chaque tube contenant les glandes sébacées de la peau d'oreille. Les tubes sont bouchés et portés à 70°C pendant une nuit.
Après ce temps, les tubes sont refroidis et 3 ml d'acide chlorhydrique 2N sont introduits dans chaque tube. Les lipides présents correspondant aux glandes sébacées de chaque oreille sont alors extraits par 2 fois 4 ml d'hexane après agitation de 5 min. Après séparation des phases aqueuse et hexanique, 3,25 ml d'hexane à la première extraction et 4 ml à la deuxième sont prélevés et réunis dans une fiole de comptage contenant 10 ml de liquide de mélange scintillant.
Les fioles, après bouchage et- agitation, sont introduites dans un compteur à scintillation liquide préréglé sur le canal ^14C. Le temps de comptage de chaque fiole est de 4 min. Pour chaque fiole, le résultat exprimé en coups/minute (cpm) est transformé en fonction du poids de prélèvement en cpm/mg et l'inhibition (ou l'augmentation) de la synthèse des lipides est donnée par la variation % (A%) de l'incorporation en cpm/mg entre l'oreille témoin et l'oreille "traitée".
La moyenne des A% est effectuée et la valeur statistique des résultats est déterminée par le calcul du coefficient "t" de Student.

organes du flanc = assay: Local antiseborrheic activity (testosterone propionate-stimulated hamster flank organ, lipogenesis from 14C-glucose); assay type: in vivo, hamsters femelles Syrien doré; conditions: topical, dose de 2000 µg par jour
Description: Des hamsters femelles Syrien doré, d'un poids moyen de 110 g, sont tondus et rasés au niveau des organes du flanc qui se présentent sous l'aspect d'une tache sombre de 2 mm de diamètre environ, de part et d'autre de la colonne vertébrale. Sur un des organes, 1,25 µg de testostérone propionate est appliqué journellement sous un volume de 10 µl d'acétone, l'autre organe recevent la même quantité de testostérone associée au produit à étudier. Le traitement s'effectue 5 jours/7 jours pendant 21 jours.
A la fin de cette période, les animaux sont sacrifiés au chloroforme et les diamètres des taches pigmentées sont measurés à l'aide d'une régie graduée. La peau est prélevée, fixée côte épiderme vers le bas, sur une planche en bois. Le muscle peaucier et le tissu adipeux sont alors éliminés par rabotage au Kératotome de Castroviejo (épaisseur de coupe réglée à 3 mm), puis une biopsie de 10 mm de diamètre au niveau de chaque organe est réalisée à l'aide d'un trépan. Cette biopsie est débitée en carrés de 1 mm^2, puis pesée (±0,1 mg).
Le reste de manipulation: incubation, saponification, extraction, est identique à celui effectué dans le test de lipogénèse in vitro ci-dessus.

| SMILES | inhibition at 0.00025 % (lipogénèse sébacée; concentration 0,00025 %) | inhibition at 0.0005 % (lipogénèse sébacée) | inhibition at 0.001 % (lipogénèse sébacée) | inhibition at 0.005 % (lipogénèse sébacée) | inhibition at 0.025 % (lipogénèse sébacée; concentration 0,025 %) | inhibition de la lipogenèse sébacée par rapport au témoin (organes du flanc) | inhibition at 0.01 % (lipogénèse sébacée) | inhibition at 0.0025 % (lipogénèse sébacée) |
| --- | --- | --- | --- | --- | --- | --- | --- | --- |
| CCCCCCCCCc1ccc(OCCOCCOCCOCCOCCOCCOCCOCCOCCOCCOCCOCCO)cc1 [compound 7886] | 6% | 33% | 51% | 84% | 71% | 100% |  |  |
| CC(C)(C)CC(C)(C)c1ccc(OCCOCCOCCOCCOCCOCCO)cc1 [40 181] |  |  | 4% | 42% |  |  | 67% | 5% |
| CCCCCCCCCc1ccc(OCCOCCOCCOCCOCCOCCO)cc1 [40 124, nonyl-4 phénoxy-17 pentaoxa-3,6,9,12,15 heptadécanol-1] |  |  | 6% | 42% |  |  | 55% | 31% |
| CC(C)(C)CC(C)(C)c1ccc(OCCOCCOCCOCCOCCOCCOCCOCCOCCOCCOCCOCCO)cc1 [40 182] |  | 19% | 41% | 89% |  |  |  | 69% |
| CCCCCCCCCc1ccc(OCCOCCOCCOCCOCCOCCOCCOCCOCCO)cc1 [compound 7948] |  |  | 10% | 61% |  |  | 81% | 31% |
